Results reported in patent US20040146535A1, “Agent for improving tissue penetration” (priority 2001, published 2004).
Blank lines part the entries; values can stand above or below the molecule they belong to.

Experiments:
in vitro = conditions: pig, permeability coefficient for fluorescein
Description: (§1) Monolayers of primary cultures of porcine brain microvascular endothelial cells (PBEC) represent an in vitro model of the blood-brain barrier. They form monolayers under standard culture conditions both on various collagen coated solid substrates and permeable filters of polycarbonate. The PBEC-monolayer grows on the filter membranes in polarized manner with the apical side representing the capillary lumen but the basolateral side corresponding to brain tissue. As soon as the cells become confluent and build up a tight layer after 7 days PBEC are ready to be used for transport experiments. Due to the formation of functional tight junctions, they show a high transendothelial electrical resistance (TEER) and a tight barrier is created with biological properties similar to the cerebral capillary endothelium
(§2) The PBEC cells were cultivated in M199, which was supplemented with 10% OS, 0.7 mM L^−1 glutamine, 10,000 U·mL^−1 penicillin/streptomycin and 50·μg mL^−1 gentamicin at 37° C., 5% CO2 and saturated humidity. The cells were subcultivated after being detached with trypsin-EDTA solution and sown on Transwell(r) filter inserts (Costar®, Wiesbaden, Germany). The filters consist of polycarbonate with a surface of 1.13 cm2 and a pore diameter of 0.4 μm.
(§3) The growth of the PBEC into confluent, differentiated monolayers on Transwell® filter inserts was verified by measurements of the TEER. […] Fluorescein passes the monolayer paracellularly, whereas propranolol is transported transcellularly. The transport studies were carried out directly on the Transwell® plates. The culture medium M199 in the apical and the basolateral compartment was replaced by serum free medium DME/Ham's F12 supplemented as described for M199 and with 0.2 μg·mL^−1 hydrocortisone one day prior to the experiment. All transport experiments involving cell-cultures were carried out as triplicates. For application of substances on the apical side half of the medium of aspirated, mixed with appropriate stock solution of the substance to be investigated and replaced onto the filter. For qualification of transcellular transport by propranolol, KRB replaced the DME/Ham's F12 as transport buffer. For transport across cell free filter inserts, the complete medium in the apical compartment was removed, mixed with stock solution and replaced into the donor compartment. […] Propranolol was dissolved in KRB (pH 7.4). Samples were collected at 15′, 30′, 45′, 60′, and 90′ from the acceptor, at 0′ and 90′ from the donor compartment and the sample volume was replaced by fresh transport buffer. Prior to the experiment and after the final sampling, the TEER of the monolayers was measured.
(§4) The apparent permeability coefficient (Papp, [cm·s^−1]) was calculated according to equation 1, where dQ/dt is the permeability rate (steady state transport rate, [μg·s^−1]) obtained from the profile of the transported amount of the substrate against the time. A (1.13 cm^2) is the surface of the exposed cell monolayer, m0 the original mass [μg] of the marker substance in the donor compartment (VDonor 0.5 mL). The effective barrier function of the cell-layer is calculated from the apparent permeation coefficient and the permeation coefficient of the cell-free filter according to equation 2. In case that Papp is of higher magnitude than Pfilter, negative permeability coefficients would be calculated. Negative values for Peff are unsensical, thus an unhindered penetration of the cell-layer is to be drawn as conclusion. [formula]
(§5) In order to find an appropriate concentration affecting the permeation across the BBB, four different concentrations of hexyldiglycerol (HexylG2) were checked for their influence on fluorescein permeation and transendothelial electrical resistance.

[1] = test system: porcine brain microvascular endothelial cells (PBEC); test: in vitro
Description: as §1, §2, §3, §4, §5

[2] = test system: porcine brain microvascular endothelial cells (PBEC); test: Transendothelial electrical resistance (TEER) of PBEC monolayers; format: cell-based
Method: […]. Propranolol was dissolved in KRB (pH 7.4).
Since a more distinct effect was expected from in vivo findings, a concentration of 75 mM HexylG2 was selected to be tested with further impermeable markers.

Papp A→B at 90 min (in vitro; Papp): 0.28 ×10⁻⁶ cm/s
Papp A→B at 90 min (in vitro; Peff): 0.29 ×10⁻⁶ cm/s
Molecule: O=C1OC2(c3ccc(O)cc3Oc3cc(O)ccc32)c2ccccc21 [fluorescein, reference compound]

Peff, permeability coefficient of paracellular-transport marker ([1]; pig, 90 min): 0.96 ×10⁻⁶ cm/s
Molecule: OCC(O)CO [^14C-glycerol, glycerol, reference compound]

Molecule: hexyldiglycerol [HexylG2]
change in TEER ([2]; 50 mM HexylG2 (Table 1 experiment)): decrease in TEER
change in TEER ([2]; 75 mM HexylG2 (Table 2 experiment)): complete loss of TEER
effect on the tightness of the model barrier (fluorescein permeation and TEER) ([1]; 0.1 mM, 1 mM and 10 mM of HexylG2): no effect
enhancement of the penetration (permeability) of fluorescein ([1]; 50 mM HexylG2 versus w/o): about twofold
monolayer permeability towards glucose, inulin and glycerol ([1]; treatment of PBEC monolayers, Example 4): significantly increased
